From patent US20170252278A1, “INHIBITION OF MATURATION OF DENTAL BIOFILM AND CARIOGENIC PROPERTIES” (KONINKLIJKE PHILIPS N.V., priority 2014, published 2017)

Legend:
Format in all cases: cell-based
[1] = tested on: in vitro oral plaque biofilms; test: Microbial composition of biofilms by 16S rDNA sequencing; settings: for shift in composition (Streptococcus down, Veillonella and Actinobacillus up) versus control: 10 μM; for Actinobacillus, share of biofilm composition / Actinomyces, share of biofilm composition / Campylobacter, share of biofilm composition / Fusobacterium, share of biofilm composition / Granulicatella, share of biofilm composition / Haemophilus, share of biofilm composition / Megasphaera, share of biofilm composition / Neisseria, share of biofilm composition / Other taxa, share of biofilm composition / Porphyromonas, share of biofilm composition / Prevotella, share of biofilm composition / Rothia, share of biofilm composition / Solobacterium, share of biofilm composition / Streptococcus, share of biofilm composition / Unclass. Pasteurellaceae, share of biofilm composition / Veillonella, share of biofilm composition: 3-Oxo-N 100 μM, furanones 10 μM
Procedure: DNA was isolated using phenol bead-beating followed by Agowa isolation, following the manufacturers instructions (LGC Genomics, Mag mini kit). Briefly, cells were mechanically disrupted four times at 1200 rpm for two minutes in addition of Tris-saturated Phenol, pH8, 0.1 mm zirconium beads and Mag lysis buffer. The DNA-containing phase was mixed with binding buffer and magnetic beads. DNA concentration was estimated by determining the absorbance at 260 nm using the nanodrop (Isogen, ND-1000).
PCR was performed in a final volume of 25 μl containing 1 μl of each primer ([…]), 1 μl dNTP (10 mM), 2.5 μl 10× DreamTaq Buffer including MgCl2 (Thermo Scientific), 0.2 μl DreamTaq DNA Polymerase (5 u/μ1, Thermo Scientific) and 50 ng of DNA. Initial denaturation was performed at 94° C. for 4 min, followed by 35 cycles of denaturation at 94° C. for 30 s, 54° C. annealing for 1 min, 72° C. for 1 min primer extension and a final extension at 72° C. for 5 min. Product formation was confirmed by electrophoresis of 5 μl on a 1% (w/v) agarose gel (Sphearo Q, Leiden, The Netherlands) stained with ethidium bromide.
These samples were analyzed by 16S rDNA Illumina sequencing at TNO Zeist (Netherlands).
Table 3. Microbial composition of biofilms grown for 48 (Table 3A) or 96 h (Table 3B) in the presence of different QS inhibitors. Composition was determined by 16S rDNA sequencing. The composition of the original inoculum used for all biofilms was also determined. “Unclass.” means: unclassified.

[2] = tested on: in vitro oral plaque biofilms; test: Lactic acid production assay of in vitro oral plaque biofilms; settings: for reduction of lactate production / lactic acid production after 96 h of growth: 10 μM; for total lactic acid production per biofilm (FIG. 2): 100 μM, biofilms grown 48 h, 3 h in BPW with 0.2% sucrose
Procedure: All compounds tested of Table 1 were obtained from Sigma Aldrich. All compounds of Table 2, except 3-oxo-N(2oxocyclohexyl)dodecanamide, were kindly provided by M. Meijler, University of the Negev, Israel. The compounds were dissolved in DMSO and stored at −20 C. The compounds were continuously present at the indicated concentrations during biofilm growth, but not during further phenotypic analysis, i.e. lactate production.
To estimate the cariogenic phenotype, lactic acid production of the in vitro oral plaque biofilms was determined prior to harvesting (Exerkate et al 2010). In short, the biofilms on coverslips were placed in a 24-well plate containing 1.5 ml of BPW with 0.2% sucrose. Lactic acid formation was allowed for 3 hr at 37° C. under anaerobic conditions. The total amount of lactic acid produced in this period was analyzed using a colorimetric assay described previously (van Loveren et al. (2000)) and expressed as mM lactic acid, and as μM lactic acid per 1×10^6 CFU.
Biofilms were grown for 48 h in buffered McBain medium supplemented with 0.2% sucrose in the presence of 100 μM of one of the compounds. Medium was refreshed twice every day. […]

[3] = tested on: in vitro oral plaque biofilms; test: In vitro oral plaque biofilm formation in the Amsterdam Active Attachment Model, CFU determination; settings: for effect on in vitro oral plaque biofilm formation: 10 μM, difference less than one log, not considered biologically relevant
Procedure: Stimulated saliva, used as inoculum, was collected on ice from ten donors. Saliva was donated 24 h after last brushing. The saliva was diluted 2-fold with 60% sterile glycerol, aliquoted and stored at −80° C. Before use, a pooled sample was prepared by mixing 200 μl of thawed saliva of each donor and vortexing for 30 seconds. In vitro oral plaque biofilms were inoculated 1:50 with pooled saliva.
In vitro oral plaque biofilms were grown in the Amsterdam Active Attachment Model (AAA-model, Exterkate et al. (2010)), assembled with glass coverslips (diameter 12 mm; Menzel, Braunschweig, Germany). The model was inoculated for 8 h with pooled saliva in buffered semi-defined McBain medium (2.5 g/l mucin (Sigma, St Louis, Mo.), 2.0 g/l Bacto peptone (Difco, Detroit, Mich.), 2.0 g/l Trypticase peptone (BBL, Cockeysville, Md.), 1.0 g/l yeast extract (BD Diagnostic Systems, Sparks, Md.), 0.35 g/l NaCl, 0.2 g/l KCl, 0.2 g/l CaCl2, 1 mg/l hemin (Sigma, St. Louis, Mo., USA), and 2 mg/l vitamin K1 (McBain et al. (2005)), with 50 mmol/1 PIPES at pH 7.0), with 0.2% sucrose.
In vitro oral plaque biofilms were grown in the AAA-model for 48-96 h in the presence of the compounds tested. The model was inoculated with saliva and incubated anaerobically at 37° C. for 8 hours to allow microbes to attach to the glass coverslips. After 8 hours of attachment, the inoculation medium was refreshed and in vitro oral plaque biofilms were grown for 16 hours. This refreshment routine was repeated daily until the day of harvesting.
In vitro oral plaque biofilms were harvested by transferring the glass coverslips into 2 ml phosphate buffered saline (PBS). The biofilms were dispersed using a Vibracell VCX130 sonicator with a maximum of 130 Watts and 20 kHz (Sonics & Materials, Newtown, USA). Bio films were sonicated on ice for 1 minute with a pulse rate of 50% and pulses of 1 second. Vibration amplitude was set to 40%.
To estimate the amount of in vitro oral plaque biofilm formation, total anaerobic colony forming units were determined. Briefly, serial dilutions of the dispersed bio films were made and plated on tryptic soy agar blood plates. Plates were subsequently incubated anaerobically for 96 h at 37° C. and colony forming units were determined by counting the number of colonies for each dilution.

| Structure (SMILES) | shift in composition (Streptococcus down, Veillonella and Actinobacillus up) versus control ([1]; 48 h) | Actinobacillus, share of biofilm composition ([1]; 48 h) [%] | Actinomyces, share of biofilm composition ([1]; 48 h) [%] | Campylobacter, share of biofilm composition ([1]; 48 h) [%] | Fusobacterium, share of biofilm composition ([1]; 48 h) [%] | Granulicatella, share of biofilm composition ([1]; 48 h) [%] | Haemophilus, share of biofilm composition ([1]; 48 h) [%] | Megasphaera, share of biofilm composition ([1]; 48 h) [%] | Neisseria, share of biofilm composition ([1]; 48 h) [%] | Other taxa, share of biofilm composition ([1]; 48 h) [%] | Porphyromonas, share of biofilm composition ([1]; 48 h) [%] | Prevotella, share of biofilm composition ([1]; 48 h) [%] | Rothia, share of biofilm composition ([1]; 48 h) [%] | Solobacterium, share of biofilm composition ([1]; 48 h) [%] | Streptococcus, share of biofilm composition ([1]; 48 h) [%] | Unclass. Pasteurellaceae, share of biofilm composition ([1]; 48 h) [%] | Veillonella, share of biofilm composition ([1]; 48 h) [%] | Actinobacillus, share of biofilm composition ([1]; 96 h) [%] | Actinomyces, share of biofilm composition ([1]; 96 h) [%] | Campylobacter, share of biofilm composition ([1]; 96 h) [%] | also measured |
| --- | --- | --- | --- | --- | --- | --- | --- | --- | --- | --- | --- | --- | --- | --- | --- | --- | --- | --- | --- | --- | --- |
| O=C1OCC(Br)=C1Br [3,4-Di-bromo, 3,4-Dibromo-2(5H)-furanone] | absent or even inversed | 3.7 | 0.0 | 0.2 | 0.0 | 0.1 | 0.0 | 0.0 | 0.0 | 0.1 | 0.0 | 0.0 | 0.0 | 0.1 | 60.8 | 0.2 | 34.8 | 3.4 | 0.1 | 1.6 | Fusobacterium, share of biofilm composition ([1]; 96 h): 0.0%; Granulicatella, share of biofilm composition ([1]; 96 h): 0.2%; Haemophilus, share of biofilm composition ([1]; 96 h): 0.0%; Megasphaera, share of biofilm composition ([1]; 96 h): 0.0%; Neisseria, share of biofilm composition ([1]; 96 h): 0.0%; Other taxa, share of biofilm composition ([1]; 96 h): 0.7%; Porphyromonas, share of biofilm composition ([1]; 96 h): 0.0%; Prevotella, share of biofilm composition ([1]; 96 h): 2.3%; Rothia, share of biofilm composition ([1]; 96 h): 0.0%; Solobacterium, share of biofilm composition ([1]; 96 h): 0.7%; Streptococcus, share of biofilm composition ([1]; 96 h): 38.0%; Unclass. Pasteurellaceae, share of biofilm composition ([1]; 96 h): 0.0%; Veillonella, share of biofilm composition ([1]; 96 h): 52.9%; reduction of lactate production [2]: not observed; lactic acid production after 96 h of growth [2]: up-regulate; effect on in vitro oral plaque biofilm formation [3]: slightly effect |
| O=C1C=C(Br)/C(=C/Br)O1 [Furanone C30, (Z-)-4-Bromo-5-(bromomethylene)-2(5H)-furanone] | absent or even inversed | 4.9 | 0.1 | 0.0 | 0.0 | 0.0 | 0.0 | 0.0 | 0.0 | 0.0 | 0.0 | 0.0 | 0.0 | 0.1 | 66.2 | 0.0 | 28.6 | 4.5 | 0.3 | 0.0 | Fusobacterium, share of biofilm composition ([1]; 96 h): 0.0%; Granulicatella, share of biofilm composition ([1]; 96 h): 0.3%; Haemophilus, share of biofilm composition ([1]; 96 h): 0.0%; Megasphaera, share of biofilm composition ([1]; 96 h): 0.0%; Neisseria, share of biofilm composition ([1]; 96 h): 0.0%; Other taxa, share of biofilm composition ([1]; 96 h): 0.1%; Porphyromonas, share of biofilm composition ([1]; 96 h): 0.0%; Prevotella, share of biofilm composition ([1]; 96 h): 0.0%; Rothia, share of biofilm composition ([1]; 96 h): 0.0%; Solobacterium, share of biofilm composition ([1]; 96 h): 0.8%; Streptococcus, share of biofilm composition ([1]; 96 h): 34.4%; Unclass. Pasteurellaceae, share of biofilm composition ([1]; 96 h): 0.0%; Veillonella, share of biofilm composition ([1]; 96 h): 59.6%; reduction of lactate production [2]: not observed; lactic acid production after 96 h of growth [2]: up-regulate; effect on in vitro oral plaque biofilm formation [3]: slightly effect |
| CCCCCCCCCCCC(=O)N[C@H]1CCOC1=O [C12-HSL, N-[(3S)-tetrahydro-2-oxo-3-furanyl]-dodecanamide] |  |  |  |  |  |  |  |  |  |  |  |  |  |  |  |  |  |  |  |  | total lactic acid production per biofilm (FIG. 2) [2]: no effect |
| CCCCCCCCCCCCCC(=O)N[C@H]1CCOC1=O [HSL-C14] |  |  |  |  |  |  |  |  |  |  |  |  |  |  |  |  |  |  |  |  | total lactic acid production per biofilm (FIG. 2) [2]: reduced lactic acid production; biofilm production (visible amount of biofilm) ([3]; Example 2, 100 μM, 48 h): toxic to the formation of biofilm |
